Measurements taken from article PMC10584170, “Machine learning-based phenotypic imaging to characterise the targetable biology of Plasmodium falciparum male gametocytes for the development of transmission-blocking antimalarials” (PLOS Pathogens, 2023).
Where two headings read alike, the source gives them in different places.

Columns and labels:
[1] = test system: P. falciparum female gametocytes; test: P. falciparum Dual Gamete Formation Assay (PfDGFA), female readout (Pfs25-positive female gametes); format: cell-based, Plasmodium falciparum NF54; settings: for Average inhibition female (%) / % inhibition female (individual replicates) R1 / % inhibition female (individual replicates) R3 / % inhibition female (individual replicates) R4 / inhibition at 2 µM: 2µM, 24h preincubation with gametocytes; for Selectivity ratio F: HepG2 Tox50 versus female IC50; for IC50: PfDGFA, 24 h incubation with gametocytes before induction, female gamete readout, read-out: Female IC50
Outline: (§1)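 Mature NF54 gametocytes (day 14) were incubated with compound for 24 h at 37°C under 1% O2/3% CO2, then triggered with xanthurenic acid ookinete medium plus Cy3-anti-Pfs25. Exflagellation was imaged by brightfield; after a further 24 h at 28°C, Pfs25-positive female gametes were imaged by fluorescence and counted by automated image analysis.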

HepG2 cells = test: HepG2 cytotoxicity counter-screen; settings: cytotoxic activity against HepG2 cells
[2] = test system: P. falciparum male gametocytes; test: P. falciparum Dual Gamete Formation Assay (PfDGFA), male readout (exflagellation); format: cell-based, Plasmodium falciparum NF54; settings: for Average inhibition male (%) / % inhibition male (individual replicates) R1 / % inhibition male (individual replicates) R3 / % inhibition male (individual replicates) R4 / inhibition at 2 µM: 2µM, 24h preincubation with gametocytes; for Selectivity Ratio M: HepG2 Tox50 versus male IC50; for IC50: PfDGFA, 24 h incubation with gametocytes before induction, exflagellation readout, read-out: Male IC50
Outline: as §1

[3] = Plasmodium falciparum, average of replicates, read-out: Average inhibition female (%)
[4] = Plasmodium falciparum, replicate R1, read-out: % inhibition female (individual replicates) R1
[5] = Plasmodium falciparum, replicate R2, read-out: % inhibition female (individual replicates) R2
[6] = Plasmodium falciparum, replicate R3, read-out: % inhibition female (individual replicates) R3
[7] = Plasmodium falciparum, replicate R4, read-out: % inhibition female (individual replicates) R4
[8] = Plasmodium falciparum, average of replicates, read-out: Average inhibition male (%)
[9] = Plasmodium falciparum, replicate R1, read-out: % inhibition male (individual replicates) R1
[10] = Plasmodium falciparum, replicate R2, read-out: % inhibition male (individual replicates) R2
[11] = Plasmodium falciparum, replicate R4, read-out: % inhibition male (individual replicates) R4

IC50 [1]	IC50 [2]	SMILES	Average inhibition female (%) ([1]; average of replicates)	% inhibition female (individual replicates) R1 ([1]; replicate R1)	% inhibition female (individual replicates) R3 ([1]; replicate R3)	% inhibition female (individual replicates) R4 ([1]; replicate R4)	Selectivity ratio F [1]	Tox50 (HepG2 cells)	Average inhibition male (%) ([2]; average of replicates)	% inhibition male (individual replicates) R1 ([2]; replicate R1)	% inhibition male (individual replicates) R3 ([2]; replicate R3)	% inhibition male (individual replicates) R4 ([2]; replicate R4)	Selectivity Ratio M [2]	inhibition at 2 µM [1, 3]	inhibition at 2 µM [1, 4]	inhibition at 2 µM [1, 5]	inhibition at 2 µM [1, 6]	inhibition at 2 µM [1, 7]	IC50 ([1]; Plasmodium falciparum)	inhibition at 2 µM [2, 8]	other results
4.42 µM	1.22 µM	Cl.O=S(=O)(Nc1cc2c(cc1OCCCN1CCCCC1)CCNCC2)c1ccc(-c2ccc(Cl)cc2)cc1 [TCMDC-141753]	56.2%	37.1%	44.2%	65.5%	1.62	7.17 µM	98.2%	97.5%	95.7%	101.6%	5.89								
		Cc1ccc(C)c(S(=O)(=O)NCC2CCN(Cc3ccc(O)cc3)CC2)c1.O=C(O)C(F)(F)F [TCMDC-141802]					8.16	81.55 µM					54.73	41.1%	46.9%	46.3%	38%	33.3%	> 10 µM	95.1%	inhibition at 2 µM [2, 9]: 95.4%; inhibition at 2 µM [2, 10]: 96.3%; inhibition at 2 µM [2, 11]: 93.6%; IC50 ([2]; Plasmodium falciparum): 1.49 µM
		O=C(O)CCSSc1cccc[n+]1[O-] [TCMDC-141973]					117.36	30.9 µM					128.35	42.8%	28.9%	62.6%	43.7%	35.9%	0.26 µM	97.3%	inhibition at 2 µM [2, 9]: 98.9%; inhibition at 2 µM [2, 10]: 96.8%; inhibition at 2 µM ([2]; Plasmodium falciparum, replicate R3, read-out: % inhibition male (individual replicates) R3): 100%; inhibition at 2 µM [2, 11]: 92.9%; IC50 ([2]; Plasmodium falciparum): 0.24 µM
2.25 µM	1.15 µM	Nc1nc(N)c2cc(NC(=O)c3ccc(Cl)c(Cl)c3)ccc2n1 [TCMDC-141982]	81.8%	88.2%	90.4%	80.2%	1.06	2.38 µM	98.2%	97.3%	98.4%	100.2%	2.06								

SMILES	IC50 [1]	IC50 [2]	Average inhibition female (%) ([1]; average of replicates)	% inhibition female (individual replicates) R1 ([1]; replicate R1)	% inhibition female (individual replicates) R3 ([1]; replicate R3)	% inhibition female (individual replicates) R4 ([1]; replicate R4)	Selectivity ratio F [1]	Tox50 (HepG2 cells)	Average inhibition male (%) ([2]; average of replicates)	% inhibition male (individual replicates) R1 ([2]; replicate R1)	% inhibition male (individual replicates) R3 ([2]; replicate R3)	% inhibition male (individual replicates) R4 ([2]; replicate R4)	Selectivity Ratio M [2]	inhibition at 2 µM [1, 3]	inhibition at 2 µM [1, 4]	inhibition at 2 µM [1, 5]	inhibition at 2 µM [1, 6]	inhibition at 2 µM [1, 7]	IC50 ([1]; Plasmodium falciparum)	inhibition at 2 µM [2, 8]	other results
Cc1c(Cn2nc(Cl)c(N3CCNCC3)cc2=O)cccc1NC(=O)Nc1ccc(-c2ccccc2)cc1.O=C(O)C(F)(F)F [TCMDC-141699]	0.56 µM	0.58 µM	53.7%	31.7%	37.6%	62.1%	2.15	1.2 µM	91.5%	87.4%	92.1%	92.9%	2.05								
